Reference: patent publication US20030064989A1, “Inhibitors of cell proliferation, angiogenesis, fertility, and muscle contraction” (priority 2001, published 2003)
Where “and” joins values, the source holds several entries; their conditions need not be identical. Equal entries are not always repeated. Entries after “also recorded” stand apart in the source; their conditions may differ.

Key:
[1] = tested on: chick chorioallantoic membrane (CAM); assay: Chick chorioallantoic membrane (CAM) assay, CAM area; conditions: for LOAEL / LOAEL (Molar) / NOAEL (Molar) / LOAEL (mg/ml): day 5-6 CAMs, 24 hours; for minimal effective concentration: Gallus gallus, 24 h, read-out: lowest effective dose on CAM area; for effect on CAM area: 5e-11M
Method: The chick chorioallantoic membrane (CAM) assay is perhaps the most widely used assay for screening anti-angiogenic or growth inhibitory compounds (see, e.g. Ribatti et al., Int. J. Dev. Biol. 40:1189-1197 (1996)). Cell proliferation and angiogenesis were evaluated by measuring CAM area and BrdU labeling using the CAM assay as modified by Melkonian et al., J. Exp. Zool. (2001), in review. Fertilized chicken eggs were purchased from Hy-Line International (Lakeview, CA), then incubated at 37° C. at 85-90% relative humidity throughout the experiment. Experiments were done to evaluate cell proliferation, angiogenesis, and vascularization in CAMs between days 5 and 6 after fertilization. Albumin (2.5-3.0 cc) was removed on the fourth day after fertilization to drop the embryo away from the shell. Windows were then made in shells, and sealed with transparent tape to allow subsequent access to the CAM for experimental treatment. 200 μl of either EBSS-H or different concentrations of pure chemicals were added to the surface of each CAM at 10 AM on the fifth day after fertilization. A sham control group in which the window was opened and resealed was also included in each experiment. In all cases, the following five concentrations of test reagents were used, 5×10^−3 M, 5×10^−5 M, 5×10^−7M, 5×10^−9 M and 5×10^−11M. For 2-ethylpyridine and 3-ethylpyridine additional concentrations of 5×10^−12M, 5×10^−13M, 5×10^−14 M and 5×10^−15 M were used. For nicotine and nornicotine, concentrations of 5×10^−4 M, 5×10^−6 M, 5×10^−8 M and 5×10^−10 M were also used. Development was terminated at 10 AM on the sixth day after fertilization by fixing the embryo and the CAM with 3% glutaraldehyde in 0.1M cacodylate buffer (pH 7.4) for 2 hours at room temperature. A small volume of fixative was also injected under the CAM. The CAMs were later dissected from eggs, post-fixed in the same fixative for 24 hours at room temperature, then thoroughly rinsed in PBS.
At least 6 CAMs were used in each control and experimental group. Parameters which measure aspects of cell proliferation, angiogenesis, and vacularization were quantified for each CAM. These parameters include: (1) for cell proliferation—CAM area, BrdU labeling of nuclei; (2) for angiogenesis—blood vessel pattern, blood vessel area, blood vessel diameter, and blood vessel branching; (3) for vascularization—density of angiogenic clusters. The area of each CAM was measured by placing the CAMs in PBS in a Petri dish under a Wild-M5A dissecting microscope (Max ERB instrument Co., Burbank, CA), then measuring the longest and shortest length of each CAM with a ruler to the precision of 0.5 mm. The data were recorded into Excel spreadsheet. CAM area was calculated using the formula:
where A=longest length, B=longest width, π=3.14.
Means and standard deviations were then calculated for each control and treatment group. The treated group means were used to compare with control means to determine the effect of each chemical on CAM growth.
On the fifth day after fertilization, either EBSS-H or different concentrations of test chemicals were added to each CAM. A sham group in which windows were opened and resealed without adding any solution was also included to determine if the vehicle EBSS-H had any effect on CAM area. Development was terminated 24 hours later, and CAMs were measured as described in Materials and Methods.

[2] = tested on: nuclei of day 5 CAMs; assay: BrdU labeling of CAMs (cell proliferation); format: in vivo, chick
Method: Eight hours after the initial EBSS-H or chemical treatment on day 5 after fertilization, […] BrdU (Sigma, St. Louis, Mo.) were added to each CAM surface. Another 55 minutes after the BrdU treatment, the development of the CAMs was terminated by transferring the embryos and CAMs into a −20° C. freezer for 2-3 minutes. Embryos and CAMs were then fixed at −20° C. in 70% ethanol containing 50 mM glycine buffer, pH 2.0 for 1.5 hours. CAMs were then dissected out of the eggs, washed in PBS and dehydrated in 30%, 50%, 75%, 90% and 100% ethanol series. Dehydrated CAM tissues were further processed in Hypercenter II Tissue Processing System (Shandon Inc., Pittsburgh, Pa.), then embedded in paraffin using Sakura Tissue-TE (Shandon Inc., Pittsburgh, Pa.). Paraffin Sections were cut using a S20 Spencer microtome (Labequip, American Optical Corp., Ontario, Canada), and were mounted on Superfrost/plus glass slides (Fisher Scientific, Tustin, CA). Sections were deparaffinized with 3 changes of Hemo-De for 15 minutes each, 2 changes of 100% ethanol for 5 minutes each, then rehydrated in PBS. […] Images were recorded using a Spot digital camera-SP401-115 (Diagnostic Instruments, Sterling Heights, MI) and processed and montaged using Adobe Photoshop (San Jose, Calif.). […]

[3] = tested on: blood vessels of the chick chorioallantoic membrane (CAM); assay: CAM angiogenesis: blood vessel area, pattern formation, capillary plexus; format: in vivo
Method: (2001), in review. […] The surface of each CAM was further dissected out of the CAM pocket in PBS. CAMs were then flattened with 18×18-1.5 Fisherbrand microscope cover slip (Fisher Scientific, Pittsburgh, Pa.) in Fisherbrand 60×15 mm standard sterile polystyrene petri dish (Fisher Scientific, Pittsburgh, Pa.). […] Pattern formation was evaluated blindly using video image montages projected on a computer monitor. Images were ranked on a scale of 0 to 3, with 0 being similar to control CAMs and 3 being most dissimilar from controls. The area occupied by major blood vessels in control and chemically treated CAMs was measured in digitalized images projected on a computer monitor using NIH image. Boxes (2.4 c 1.98 mm) were placed in each corner of each CAM image, which had been processed to visualize the major blood vessels. The percentage of pixels occupied by the blood vessels was quantified in each box and an average percentage was computed from the four boxes measured from each CAM. These values were used to compute means and standard deviations for each group. Blood vessel diameter and branching were measured in images projected on a computer monitor using NIH Image software. Density of angiogenic clusters was evaluated in toluidine blue stained histological sections that were digitalized and projected on a computer monitor.

Compound | LOAEL ([1]; CAM area) [mg/mL] | LOAEL (Molar) ([1]; CAM area) [µM] | NOAEL (Molar) ([1]; CAM area) [nM] | minimal effective concentration [1] | also measured
Cc1cccnc1C [2,3-dimethylpyridine] | 0.00536 | 50 | 500 | 50 µM and 5.36 µg/mL | –
Cc1cc(C)nc(C)c1 [2,4,6-trimethylpyridine] | 0.0061 | 50 | 500 | 50 µM and 6.1 µg/mL | –
Cc1ccnc(C)c1 [2,4-dimethylpyridine] | 0.00536 | 50 | 500 | 50 µM and 5.36 µg/mL | –
CCc1ccccn1 [2-ethylpyridine] | 5.36e-10 | 5e-06 | 0.0005 | 5e-06 µM and 5.4e-07 µg/mL | incorporation of BrdU into nuclei ([2]; 5e-11, eight hours): significantly less incorporation of BrdU; major blood vessel pattern formation ([3]; 5e-3M): disturbance in major blood vessel pattern formation; dendritic branching pattern ([3]; all doses tested): disrupted; formation of the capillary plexus ([3]; in vivo): significantly inhibited; also recorded: failed to form; dose at which blood vessel area was significantly decreased ([3]; vs EBSS control, exposed day 5, evaluated day 6): 50 pM; CAM size compared with control groups ([1]; 5e-3M): significantly smaller; lowest effective dose lower than that of the single pyridine ring ([1]; CAM area): 10 million; CAM growth / size compared with control ([1]; dose not stated): significantly inhibited
Cc1ccccn1 [2-methylpyridine] | – | 0.005 | 0.05 | 0.005 µM and 0.000466 µg/mL | incorporation of BrdU into nuclei ([2]; 5e-9, eight hours): significantly less incorporation of BrdU; LOAEL (mg/ml) ([1]; CAM area): 4.66e−7 mg/lml mg/ml
Cc1cccnc1 [3-methylpyridine] | – | 0.005 | 0.05 | 0.005 µM and 0.000466 µg/mL | LOAEL (mg/ml) ([1]; CAM area): 4.66e−7 mg/lml mg/ml
c1cc(-c2ccncc2)ccn1 [4,4-bipyridine] | 0.0781 | 500 | 50000 | 500 µM and 78.1 µg/mL | –
C=Cc1ccncc1 [4-ethenylpyridine] | 0.00526 | 50 | 500 | 50 µM and 5.26 µg/mL | –
c1ccncc1 [Pyridine, pyridine, reference compound] | 0.00396 | 50 | 500 | 50 µM and 3.96 µg/mL | –
Cn1cccc1-c1cccnc1 [b-nicotyrine, 3-(1-methylpyrrol-2-yl)pyridine] | 7.9e-05 | 0.5 | 5 | 0.5 µM and 0.079 µg/mL | effect on CAM area [1]: slight increase
CN1CCCC1c1cccnc1 (stereo not drawn) [nicotine, 1-methyl-2-(3-pyridyl)pyrrolidine] | 0.081 | 500 | 50000 | 500 µM and 81 µg/mL | effect on CAM area [1]: significant stimulatory effect
c1cncc([C@@H]2CCCN2)c1 [nornicotine, 3-(1-pyrrolidin-2-yl)pyridine] | 0.0074 | 50 | 5000 | 50 µM and 7.4 µg/mL | effect on CAM area [1]: significant stimulatory effect
